Consider twelve compounds from ChEMBL document CHEMBL3792282, “Cinnamic acid amides from Tribulus terrestris displaying uncompetitive α-glucosidase inhibition” (Eur J Med Chem, 2016).

Calls of active or inactive are those of the source. The calls are words filed in the database; no cut-off is given here.

For assay [1], the target named is T1, Beta-glucosidase (Homo sapiens) (UniProt Q9HCG7).
T1 sequence (whole entry): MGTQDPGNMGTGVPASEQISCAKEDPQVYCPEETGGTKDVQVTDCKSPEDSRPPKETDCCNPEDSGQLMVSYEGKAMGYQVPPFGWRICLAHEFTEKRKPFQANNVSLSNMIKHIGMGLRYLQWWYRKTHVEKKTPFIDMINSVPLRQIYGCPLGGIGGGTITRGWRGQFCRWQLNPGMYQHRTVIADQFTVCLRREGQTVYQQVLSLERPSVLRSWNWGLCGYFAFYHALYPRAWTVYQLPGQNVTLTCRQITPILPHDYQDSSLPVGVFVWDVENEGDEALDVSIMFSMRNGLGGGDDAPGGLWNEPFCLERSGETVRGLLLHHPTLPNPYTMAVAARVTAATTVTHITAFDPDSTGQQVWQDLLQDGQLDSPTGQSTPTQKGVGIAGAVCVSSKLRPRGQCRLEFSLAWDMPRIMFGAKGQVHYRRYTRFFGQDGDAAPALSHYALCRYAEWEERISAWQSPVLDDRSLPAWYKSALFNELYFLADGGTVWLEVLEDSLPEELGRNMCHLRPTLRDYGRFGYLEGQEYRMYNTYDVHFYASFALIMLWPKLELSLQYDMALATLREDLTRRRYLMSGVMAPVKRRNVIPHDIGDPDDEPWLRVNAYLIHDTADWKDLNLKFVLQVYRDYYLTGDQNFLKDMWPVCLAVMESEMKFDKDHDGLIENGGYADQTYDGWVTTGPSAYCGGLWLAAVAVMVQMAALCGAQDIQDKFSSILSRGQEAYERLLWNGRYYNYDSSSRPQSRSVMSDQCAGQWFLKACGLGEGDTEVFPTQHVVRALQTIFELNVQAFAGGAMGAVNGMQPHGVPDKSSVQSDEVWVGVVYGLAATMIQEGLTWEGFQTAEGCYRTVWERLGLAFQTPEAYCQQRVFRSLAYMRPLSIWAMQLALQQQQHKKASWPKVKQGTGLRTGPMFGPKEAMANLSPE
The assay is described as follows: Inhibition of beta-glucosidase (unknown origin) up to 200 uM.

The species entered for assay [2] is Homo sapiens. The assay is described as follows: Inhibition of alpha-mannosidase (unknown origin) up to 200 uM.
The species named for assay [3] is Homo sapiens. The assay is described as follows: Inhibition of alpha-galactosidase (unknown origin) up to 200 uM.
The nature of assay [4]: Uncompetitive inhibition of baker's yeast alpha-glucosidase using pNPG as substrate by Cornish-Bowden plot analysis. The arrangement: species or system Saccharomyces cerevisiae.
Assay [5] has as its target Alpha amylase (Homo sapiens) (UniProt P0DUB6). The experiment in a line: Inhibition of alpha-amylase (unknown origin) up to 200 uM.
The test system of assay [6] is Saccharomyces cerevisiae. The assay is described as follows: (§1) Inhibition of baker's yeast alpha-glucosidase using pNPG as substrate by spectrophotometry.
Assay [7] can be described thus: as §1. Further details: species or system Saccharomyces cerevisiae.
Assay [8] relates to Saccharomyces cerevisiae. The experiment in a line: Uncompetitive inhibition of baker's yeast alpha-glucosidase using pNPG as substrate assessed as ratio of Kik to Kiv at 0.78 uM by Lineweaver-Burk plot analysis.
Assay [9] concerns Saccharomyces cerevisiae. The experiment in a line: Uncompetitive inhibition of baker's yeast alpha-glucosidase using pNPG as substrate assessed as ratio of Kik to Kiv at 0.19 uM by Lineweaver-Burk plot analysis.
Assay [10] relates to Saccharomyces cerevisiae. The assay is described as follows: Uncompetitive inhibition of baker's yeast alpha-glucosidase using pNPG as substrate assessed as ratio of Kik to Kiv at 1.56 uM by Lineweaver-Burk plot analysis.
Assay [11] deals with Saccharomyces cerevisiae. The assay is described as follows: Uncompetitive inhibition of baker's yeast alpha-glucosidase using pNPG as substrate assessed as ratio of Kik to Kiv at 0.39 uM by Lineweaver-Burk plot analysis.

Sequence of Alpha amylase (Homo sapiens) (P0DUB6 whole entry, looked up): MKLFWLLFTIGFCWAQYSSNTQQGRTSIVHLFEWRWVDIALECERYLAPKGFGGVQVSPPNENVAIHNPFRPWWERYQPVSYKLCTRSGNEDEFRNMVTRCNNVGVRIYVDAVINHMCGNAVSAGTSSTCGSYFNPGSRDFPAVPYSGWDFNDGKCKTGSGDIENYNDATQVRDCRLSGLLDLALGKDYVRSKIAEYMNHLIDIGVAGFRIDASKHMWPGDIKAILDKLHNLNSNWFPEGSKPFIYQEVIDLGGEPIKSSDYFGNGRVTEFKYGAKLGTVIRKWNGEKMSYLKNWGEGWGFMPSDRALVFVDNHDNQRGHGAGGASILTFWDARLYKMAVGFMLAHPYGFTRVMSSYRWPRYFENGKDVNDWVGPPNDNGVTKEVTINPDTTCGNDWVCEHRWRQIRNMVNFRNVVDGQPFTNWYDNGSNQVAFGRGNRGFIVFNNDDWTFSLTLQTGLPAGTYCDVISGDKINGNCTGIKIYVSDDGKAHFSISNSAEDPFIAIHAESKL

What is called Ki is the equilibrium dissociation constant of an inhibitor or competing ligand from its target. As a reminder, the IC50 is the midpoint of a concentration-inhibition curve. For `COc1cc(/C=C/C(=O)NCCc2ccc(O)cc2)ccc1O` [N-TRANS-FERULOYL TYRAMINE], the inhibition entry in [1], in [2], in [3] and in [5] was “inactive” in each case. Also, the affinity in assay [4], expressed as Ki, was 11.3 µM. Besides, the inhibition result in assay [6] is “Dose-dependent effect”. For the same compound, the half-inhibitory concentration (IC50) in assay [7] worked out at 10.6 µM.
`COc1cc(/C=C/C(=O)NC(O)C(=O)c2ccc(O)cc2)ccc1O` (centres undefined): the inhibition entry in [1], in assay [2], in [3] and in assay [5] was “inactive” in each case. Further, the inhibition result in assay [6] was “Dose-dependent effect”. The compound further gave a concentration for half-maximal inhibition (IC50) in [7] of 226 µM.
Compound `O=C(/C=C/c1ccccc1)NCCc1ccc(O)cc1` displayed an IC50 in [7] of 215 µM.
In the case of `O=C(CCc1ccc(O)cc1)NCCc1ccc(O)cc1`, in [4], affinity was put at a Ki of 18.2 µM. Also, in assay [7], the IC50 turned out to be 19 µM.
The matching figures for `O=C(/C=C/c1ccc(O)cc1)NCCc1ccccc1`: 0.29 µM and 0.31 µM.
In the case of `O=C(/C=C/c1ccc(O)cc1)NCCc1ccc(F)cc1`, the inhibition constant (Ki) in assay [4] stood at 1.38 µM. For the same compound, it took 1.22 µM to reach half-maximal inhibition in assay [7] (IC50).
As for `O=C(/C=C/c1ccc(O)c(O)c1)NCCc1ccc(O)cc1`, the inhibition result in assay [1], in assay [2], in assay [3] and in assay [5] was “inactive” each time. In [4], this compound had a Ki of 1.77 µM. Further, the inhibition result in assay [6] is “Dose-dependent effect”. In assay [7], this compound had a half-inhibitory concentration (IC50) of 1.86 µM.
In assay [4], `O=C(/C=C/c1ccc(O)cc1)NCCc1ccc(O)c(O)c1` had a Ki of 1.74 µM. In [7], 1.63 µM corresponded to half-maximal inhibition (IC50).
For `COc1cc(/C=C/C(=O)NCC(O)c2ccc(O)cc2)ccc1O` (centres undefined), the inhibition result in assay [1], in assay [2], in [3] and in [5] was “inactive” in each case. In addition, the inhibition result in assay [6] is “Dose-dependent effect”. This compound also showed an IC50 in assay [7] of 188 µM.
For the compound `O=C(/C=C/c1ccc(O)cc1)NCCc1ccc(O)cc1` [N-P-COUMAROYL TYRAMINE], the inhibition result in assay [1], in assay [2], in assay [3] and in [5] was “inactive” throughout. For the same compound, the Ratio in assay [8] is 1.05; in assay [9], 1.03; in [10], 1.03; in assay [11], 1.04. In assay [4], this compound registered a Ki of 0.35 µM. In [6], the inhibition entry is “Dose-dependent effect”. In addition, the IC50 in [7] is 0.42 µM.
With `OC[C@H]1NC[C@H](O)[C@@H](O)[C@@H]1O` [DUVOGLUSTAT], inhibition in assay [7] was half-maximal at […] (IC50).
On to `COc1cc(/C=C/C(=O)NCC(=O)c2ccc(O)cc2)ccc1O`, for which the inhibition entry in [1], in assay [2], in assay [3] and in [5] was “inactive” in each case. In assay [4], affinity was put at a Ki of 62.1 µM. The inhibition entry in assay [6] was “Dose-dependent effect”. The compound also had an IC50 in assay [7] of 61.5 µM.
